Measured values published in patent US20120083476A1, “HETEROARYL-SUBSTITUTED SPIROCYCLIC DIAMINE UREA MODULATORS OF FATTY ACID AMIDE HYDROLASE” (Janssen Pharmaceutica NV, priority 2009, published 2012).
Counter-ions that a name gives are not always drawn. Like-named read-outs stand apart in the source and are kept apart here.

Assays:
Rat FAAH = target: T1, Rat FAAH (Rattus norvegicus, UniProt P97612); test: Assay Method 2: rat FAAH assay (3H-anandamide hydrolysis in cell homogenate); type: biochemical; settings: read-out: Assay 2 IC50
T1 construct: expressed in transfected cells; host or cells: SK-N-MC cells stably transfected with rat FAAH cDNA (G418 selection)
T1 sequence (P97612 1-579): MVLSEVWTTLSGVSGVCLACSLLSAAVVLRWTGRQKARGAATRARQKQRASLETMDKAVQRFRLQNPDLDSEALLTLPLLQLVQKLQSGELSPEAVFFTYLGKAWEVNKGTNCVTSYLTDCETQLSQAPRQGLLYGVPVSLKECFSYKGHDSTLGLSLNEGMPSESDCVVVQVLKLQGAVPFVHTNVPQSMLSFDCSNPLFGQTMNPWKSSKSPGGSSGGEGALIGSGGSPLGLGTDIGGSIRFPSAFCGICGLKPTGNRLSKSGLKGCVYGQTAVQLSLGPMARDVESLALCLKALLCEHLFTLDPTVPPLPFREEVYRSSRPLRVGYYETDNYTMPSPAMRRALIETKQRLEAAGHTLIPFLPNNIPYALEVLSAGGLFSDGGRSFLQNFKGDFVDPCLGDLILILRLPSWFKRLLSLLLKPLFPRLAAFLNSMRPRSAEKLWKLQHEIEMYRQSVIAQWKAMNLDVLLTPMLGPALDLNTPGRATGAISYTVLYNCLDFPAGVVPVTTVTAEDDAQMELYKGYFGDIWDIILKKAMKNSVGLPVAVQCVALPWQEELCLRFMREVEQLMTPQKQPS
Summary of the method: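 Homogenates of T84 cells or SK-N-MC cells stably transfected with rat FAAH, in pH 9 Tris/EDTA/glycerol/Triton buffer, incubated 1 h at room temperature with 3H-anandamide. Released labeled ethanolamine separated from substrate on activated charcoal and counted by scintillation; values averaged over runs.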

FAAH = target: T2, FAAH (Homo sapiens, UniProt O00519); test: Assay Method 1: human FAAH assay (3H-anandamide hydrolysis in cell homogenate); type: biochemical; design: expressed in transfected cells; host or cells: SK-N-MC cells stably transfected with human FAAH cDNA (G418 selection); alternatively T84 cell pellets
T2 sequence (O00519 1-579): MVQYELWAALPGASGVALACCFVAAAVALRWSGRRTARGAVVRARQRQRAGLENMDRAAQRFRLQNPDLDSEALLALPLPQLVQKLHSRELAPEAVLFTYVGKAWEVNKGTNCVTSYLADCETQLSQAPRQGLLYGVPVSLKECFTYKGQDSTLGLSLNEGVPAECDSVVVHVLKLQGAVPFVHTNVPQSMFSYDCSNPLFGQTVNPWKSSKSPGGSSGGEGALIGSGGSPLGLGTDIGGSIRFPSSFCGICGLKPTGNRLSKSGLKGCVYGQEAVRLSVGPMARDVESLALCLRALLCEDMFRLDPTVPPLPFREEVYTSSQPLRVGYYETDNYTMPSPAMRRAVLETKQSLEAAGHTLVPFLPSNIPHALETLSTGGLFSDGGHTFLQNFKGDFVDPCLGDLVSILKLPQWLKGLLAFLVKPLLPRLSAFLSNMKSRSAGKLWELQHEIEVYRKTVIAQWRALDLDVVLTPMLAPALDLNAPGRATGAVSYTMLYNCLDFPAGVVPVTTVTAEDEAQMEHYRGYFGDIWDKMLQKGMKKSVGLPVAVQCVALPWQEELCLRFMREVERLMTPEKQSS
Summary of the method: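 Homogenates of T84 cells or SK-N-MC cells stably transfected with human FAAH, in pH 9 Tris/EDTA buffer with 0.02% Triton X-100. Incubated 1 h at rt with compound and 80 nM (final) [3H-ethanolamine]-anandamide. Released 3H-ethanolamine separated on charcoal filters and counted by scintillation.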

| IC50 (Rat FAAH) [µM] | IC50 (FAAH; read-out: Assay 1 IC50) [µM] | Compound | IC50 (FAAH) [µM] |
| --- | --- | --- | --- |
| 0.26 | 0.2 | O=C(Nc1ccc(-n2nccn2)nc1)N1CCC2(CCN(Cc3cccc(Oc4ccc(Cl)cc4)c3)CC2)C1 [Example 91, 8-[3-(4-Chloro-phenoxy)-benzyl]-2,8-diaza-spiro[4.5]decane-2-carboxylic acid (6-[1,2,3]triazol-2-yl-pyridin-3-yl)-amide, trifluoroacetic acid salt] |  |
| 0.02 | 0.16 | O=C(Nc1noc2ccccc12)N1CCC2(CCN(Cc3cccc(Oc4ccc(Cl)cc4)c3)CC2)C1 [Example 92, 8-[3-(4-Chloro-phenoxy)-benzyl]-2,8-diaza-spiro[4.5]decane-2-carboxylic acid benzo[d]isoxazol-3-ylamide, trifluoroacetic acid salt] |  |
| 0.48 | 1.1 | O=C(Nc1cccnc1)N1CCC2(CCCN2Cc2cccc(Oc3ccc(Cl)cc3)c2)CC1 [Example 93, 1-[3-(4-Chloro-phenoxy)-benzyl]-1,8-diaza-spiro[4.5]decane-8-carboxylic acid pyridin-3-ylamide] |  |
| 0.58 | 0.37 | O=C(Nc1ccc(-n2nccn2)nc1)N1CCC2(CCCN2Cc2cccc(Oc3ccc(Cl)cc3)c2)CC1 [Example 94, 1-[3-(4-Chloro-phenoxy)-benzyl]-1,8-diaza-spiro[4.5]decane-8-carboxylic acid (6-[1,2,3]triazol-2-yl-pyridin-3-yl)-amide] |  |
| 0.4 | 0.78 | O=C(Nc1cnc2[nH]ccc2c1)N1CCC2(CCCN2Cc2cccc(Oc3ccc(Cl)cc3)c2)CC1 [Example 95, 1-[3-(4-Chloro-phenoxy)-benzyl]-1,8-diaza-spiro[4.5]decane-8-carboxylic acid (1H-pyrrolo[2,3-b]pyridin-5-yl)-amide] |  |
| > 10 | > 10 | O=C(Nc1cccnc1)N1CC2(CCN(Cc3ccccc3)CC2)C1 [Example 97, 7-Benzyl-2,7-diaza-spiro[3.5]nonane-2-carboxylic acid pyridin-3-ylamide] |  |
| > 10 | 8 | O=C(Nc1cccnc1)N1CC2(CCN(Cc3ccc(Cl)cc3)CC2)C1 [Example 100, 7-(4-Chloro-benzyl)-2,7-diaza-spiro[3.5]nonane-2-carboxylic acid pyridin-3-ylamide] |  |
| > 10 | 6 | O=C(Nc1cccnc1)N1CC2(CCN(Cc3ccc(Cl)c(Cl)c3)CC2)C1 [Example 101, 7-(3,4-dichlorobenzyl)-N-(pyridin-3-yl)-2,7-diazaspiro[3.5]nonane-2-carboxamide] |  |
| > 10 | 1.3 | O=C(Nc1cccnc1)N1CC2(CCN(Cc3ccc(OC(F)(F)F)cc3)CC2)C1 [Example 103, N-(pyridin-3-yl)-7-(4-(trifluoromethoxy)benzyl)-2,7-diazaspiro[3.5]nonane-2-carboxamide] |  |
| > 10 | 2.5 | O=C(Nc1cccnc1)N1CC2(CCN(Cc3ccc4ccccc4c3)CC2)C1 [Example 104, 7-(naphthalen-2-ylmethyl)-N-(pyridin-3-yl)-2,7-diazaspiro[3.5]nonane-2-carboxamide] |  |
| 8 | 0.37 | O=C(Nc1cccnc1)N1CC2(CCN(Cc3cccc(C#Cc4ccccc4)c3)CC2)C1 [Example 105, 7-(3-(phenylethynyl)benzyl)-N-(pyridin-3-yl)-2,7-diazaspiro[3.5]nonane-2-carboxamide] |  |
| > 10 | > 10 | CS(=O)(=O)c1ccc(CN2CCC3(CC2)CN(C(=O)Nc2cccnc2)C3)cc1 [Example 106, 7-(4-(methylsulfonyl)benzyl)-N-(pyridin-3-yl)-2,7-diazaspiro[3.5]nonane-2-carboxamide] |  |
| > 10 | > 10 | O=C(Nc1cccnc1)N1CC2(CCN(Cc3ccccc3O)CC2)C1 [Example 107, 7-(2-hydroxybenzyl)-N-(pyridin-3-yl)-2,7-diazaspiro[3.5]nonane-2-carboxamide] |  |
| > 10 | 8 | O=C(Nc1cccnc1)N1CC2(CCN(Cc3ccc4ccccc4c3O)CC2)C1 [Example 108, 7-((1-hydroxynaphthalen-2-yl)methyl)-N-(pyridin-3-yl)-2,7-diazaspiro[3.5]nonane-2-carboxamide] |  |
| 6 | 1.3 | O=C(Nc1cccnc1)N1CC2(CCN(Cc3ccc(Cl)c(OC(F)(F)F)c3)CC2)C1 [Example 110, 7-(4-chloro-3-(trifluoromethoxy)benzyl)-N-(pyridin-3-yl)-2,7-diazaspiro[3.5]nonane-2-carboxamide] |  |
| > 10 | 1.18 | O=C(Nc1cccnc1)N1CC2(CCN(Cc3ccc(OC(F)(F)F)c(Cl)c3)CC2)C1 [Example 111, 7-(3-chloro-4-(trifluoromethoxy)benzyl)-N-(pyridin-3-yl)-2,7-diazaspiro[3.5]nonane-2-carboxamide] |  |
| 0.84 | 0.06 | O=C(Nc1cccnc1)N1CC2(CCN(Cc3cccc(Oc4cccc(Cl)c4)c3)CC2)C1 [Example 112, 7-(3-(3-chlorophenoxy)benzyl)-N-(pyridin-3-yl)-2,7-diazaspiro[3.5]nonane-2-carboxamide] |  |
| 5 | 0.56 | O=C(Nc1cccnc1)N1CC2(CCN(Cc3cccc(Oc4ccc(F)c(C(F)(F)F)c4)c3)CC2)C1 [Example 113, 7-(3-(4-fluoro-3-(trifluoromethyl)phenoxy)benzyl)-N-(pyridin-3-yl)-2,7-diazaspiro[3.5]nonane-2-carboxamide] |  |
| 4 | 0.8 | O=C(Nc1cccnc1)N1CC2(CCN(Cc3cccc(Oc4cccc(C(F)(F)F)c4)c3)CC2)C1 [Example 114, N-(pyridin-3-yl)-7-(3-(3-(trifluoromethyl)phenoxy)benzyl)-2,7-diazaspiro[3.5]nonane-2-carboxamide] |  |
| 8 | 0.75 | O=C(Nc1cccnc1)N1CC2(CCN(Cc3cccc(Oc4cccc(OC(F)(F)F)c4)c3)CC2)C1 [Example 115, N-(pyridin-3-yl)-7-(3-(3-(trifluoromethoxy)phenoxy)benzyl)-2,7-diazaspiro[3.5]nonane-2-carboxamide] |  |
| 7.07 | 0.07 | N#Cc1cccc(Oc2cccc(CN3CCC4(CC3)CN(C(=O)Nc3cccnc3)C4)c2)c1 [Example 116, 7-(3-(3-cyanophenoxy)benzyl)-N-(pyridin-3-yl)-2,7-diazaspiro[3.5]nonane-2-carboxamide] |  |
| 3 | 3 | O=C(Nc1cccnc1)N1CC2(CCN(Cc3cccc(Oc4cccc(SC(F)(F)F)c4)c3)CC2)C1 [Example 117, N-(pyridin-3-yl)-7-(3-(3-(trifluoromethylthio)phenoxy)benzyl)-2,7-diazaspiro[3.5]nonane-2-carboxamide] |  |
| 0.6 | 0.16 | O=C(Nc1cccnc1)N1CC2(CCN(Cc3cccc(Oc4ccc5c(c4)OC(F)(F)O5)c3)CC2)C1 [Example 118, 7-[3-(2,2-Difluoro-benzo[1,3]-dioxol-5-yloxy)-benzyl]-2,7-diaza-spiro[3.5]nonane-2-carboxylic acid pyridin-3-ylamide] |  |
| 4 | 0.1 | O=C(Nc1cccnc1)N1CC2(CCN(Cc3cccc(Oc4ccccc4)c3)CC2)C1 [Example 119, 7-(3-Phenoxy-benzyl)-2,7-diaza-spiro[3.5]nonane-2-carboxylic acid pyridin-3-ylamide] |  |

| Compound | IC50 (Rat FAAH) [µM] | IC50 (FAAH; read-out: Assay 1 IC50) [µM] | IC50 (FAAH) [µM] |
| --- | --- | --- | --- |
| O=C(Nc1cccnc1)N1CC2(CCCN(Cc3cccc(Oc4ccc(Cl)cc4)c3)C2)C1 [Example 96, 6-[3-(4-Chloro-phenoxy)-benzyl]-2,6-diaza-spiro[3.5]nonane-2-carboxylic acid pyridin-3-ylamide] | 6 |  | 8 |
